For two molecules, bioavailability results are on record in EP2269591B1, “IMPROVED PHARMACEUTICAL FORMULATIONS” (AbbVie Inc., priority 2000, dated 2001).

Where two headings read alike, the source gives them in different places.

This data set is described as follows: oral bioavailability in dogs. In kind it is in vivo. The following applies: unformulated solid in a capsule dosage form, 5 mg/kg oral dose in dogs. On the procedure:
Dogs (beagle dogs, mixed sexes, weighing 7-14 kg) were fasted overnight prior to dosing, but were permitted water ad libitum. Each dog received a 100 µg/kg subcutaneous dose of histamine approximately 30 minutes prior to dosing. Each dog received a single dosage form corresponding to a 5 mg/kg dose of the drug. The dose was followed by approximately 10 milliliters of water. Blood samples were obtained from each animal prior to dosing and 0.25, 0.5, 1.0, 1.5, 2, 3, 4, 6, 8, 10, and 12 hours after drug administration. The plasma was separated from the red cells by centrifugation and frozen (-30 °C) until analysis. Concentrations of parent drug were determined by reverse phase HPLC with low wavelength UV detection following liquid-liquid extraction of the plasma samples. The parent drug area under the curve was calculated by the trapezoidal method over the time course of the study. The absolute bioavailability of each test composition was calculated by comparing the area under the curve after oral dosing to that obtained from a single intravenous dose. Each capsule or capsule composition was evaluated in a group containing at least six dogs; the values reported are averages for each group of dogs.

Regarding `CC(C)c1nc(CN(C)C(=O)NC(C(=O)NC(Cc2ccccc2)CC(O)C(Cc2ccccc2)NC(=O)OCc2cncs2)C(C)C)cs1` (centres unmarked) [bis-tosylate of a compound of formula I], the bioavailability (dog, in vivo, read-out: bioavailability) was less than 2%.
Consider `CC(C)c1nc(CN(C)C(=O)N[C@H](C(=O)N[C@@H](Cc2ccccc2)C[C@H](O)[C@H](Cc2ccccc2)NC(=O)OCc2cncs2)C(C)C)cs1` [compound of formula I], for which the bioavailability entry was “less than 2%”.
